# Test results reported in US10683483B2, “Microfabricated platform for mimicking the liver zonation and evaluating method of zonal toxicity using thereof” (Korea Research Institute of Chemical Technology, priority 2019, dated 2020).
# Key:
# HepaRG cells [1] = test: Hepatotoxicity evaluation by dead cell staining (EthD-1) in the microfabricated platform for mimicking the liver zonation; type: cell-based; conditions: 10 mM acetaminophen, 48 hours
# Method: First, an impermeable fluorescent substance was formed in the inside of HepaRG cells by using cell tracker deep red fluorescent solution in order to trace the location of HepaRG cells. A microfabricated platform for mimicking the liver zonation was prepared by the same conditions and same manners as described in Example 1 by using the prepared HepaRG cells. […] As a control, a culture medium without acetaminophen was used. Upon completion of the culture, the medium was removed and the dead cells were stained with EthD-1 (ethidium homodimer-1).
# HepaRG cells [2] = test: Hepatotoxicity evaluation by cell viability (cell counting kit-8) of pieces of the microfabricated platform for mimicking the liver zonation; type: cell-based; conditions: 48 hours; acetaminophen 12.5-200 mM, tamoxifen 31.2-500 μM; pieces along CHIR gradient
# Method: The 96-well plate was cultured at 37° C. for 48 hours. Upon completion of the reaction, cells were washed with PBS and the absorbance of the cells was measured using cell counting kit-8 (Dojindo Molecular Technologies) according to the manufacturer's protocol.
# liver tissue = test: Hepatotoxicity in liver tissue of a rat model (H&E staining); type: in vivo, Sprague Dawley rats; conditions: oral, once a day for 3 days; acetaminophen 1,000 mg/kg, tamoxifen 60 mg/kg
# From the text: After the administration, the animals were sacrificed, from which the liver tissues were obtained. The obtained liver tissues were stained with H&E, followed by observation under a microscope.
structure (smiles),measurement,setting,value
CC(=O)Nc1ccc(O)cc1 [acetaminophen],EthD-1 staining of dead cells (fluorescence intensity) by zone,HepaRG cells [1],high fluorescence intensity in those hepatocytes exposed to a relatively high concentration of CHIR
same,zone-specific sensitivity of cell viability to drug induced toxicity,HepaRG cells [2],more sensitive to the acetaminophen induced toxicity
same,liver histopathology by zone (H&E),liver tissue,"increased mitosis (yellow triangle), necrosis (blue triangle) and inflammatory cell infiltration (green triangle) in the central vein of the liver (zone 3)"
